# Laboratory results from ChEMBL document CHEMBL5241065, “If small molecules immunotherapy comes, can the prime be far behind?” (Eur J Med Chem, 2021).
# Legend:
# Arginase-1 [1] = molecular target: T1, Arginase-1 (Mus musculus, UniProt Q61176); experiment: Inhibition of mouse ARG1
# T1 sequence (Q61176 whole entry): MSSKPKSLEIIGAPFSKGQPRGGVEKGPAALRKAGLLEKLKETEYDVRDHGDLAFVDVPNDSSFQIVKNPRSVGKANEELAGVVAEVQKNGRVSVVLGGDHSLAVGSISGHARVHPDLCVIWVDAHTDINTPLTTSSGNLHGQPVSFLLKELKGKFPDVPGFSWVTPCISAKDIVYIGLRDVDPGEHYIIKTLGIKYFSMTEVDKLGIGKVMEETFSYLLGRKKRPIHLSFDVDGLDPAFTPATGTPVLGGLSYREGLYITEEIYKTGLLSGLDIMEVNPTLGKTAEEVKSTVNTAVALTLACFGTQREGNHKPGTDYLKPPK
# [2] = molecular target: T2, Tyrosine-protein phosphatase non-receptor type 1 (Homo sapiens, UniProt P18031)
# T2 sequence (P18031 whole entry): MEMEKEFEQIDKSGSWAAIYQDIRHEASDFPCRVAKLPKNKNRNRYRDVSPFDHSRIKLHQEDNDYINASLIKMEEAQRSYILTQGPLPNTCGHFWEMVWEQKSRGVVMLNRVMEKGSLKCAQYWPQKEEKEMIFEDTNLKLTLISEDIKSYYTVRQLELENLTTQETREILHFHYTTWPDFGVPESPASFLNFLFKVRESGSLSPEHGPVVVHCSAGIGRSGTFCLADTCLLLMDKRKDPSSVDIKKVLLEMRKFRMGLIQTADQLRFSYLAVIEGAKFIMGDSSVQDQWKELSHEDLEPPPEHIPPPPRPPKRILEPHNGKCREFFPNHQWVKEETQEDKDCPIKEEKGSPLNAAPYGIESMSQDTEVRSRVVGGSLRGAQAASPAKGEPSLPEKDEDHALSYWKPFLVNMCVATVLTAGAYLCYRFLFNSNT
# [3] = molecular target: Tyrosine-protein phosphatase non-receptor type 6 (Homo sapiens, UniProt P29350)
# Tyrosine-protein phosphatase non-receptor type 6, sequence (P29350 whole entry): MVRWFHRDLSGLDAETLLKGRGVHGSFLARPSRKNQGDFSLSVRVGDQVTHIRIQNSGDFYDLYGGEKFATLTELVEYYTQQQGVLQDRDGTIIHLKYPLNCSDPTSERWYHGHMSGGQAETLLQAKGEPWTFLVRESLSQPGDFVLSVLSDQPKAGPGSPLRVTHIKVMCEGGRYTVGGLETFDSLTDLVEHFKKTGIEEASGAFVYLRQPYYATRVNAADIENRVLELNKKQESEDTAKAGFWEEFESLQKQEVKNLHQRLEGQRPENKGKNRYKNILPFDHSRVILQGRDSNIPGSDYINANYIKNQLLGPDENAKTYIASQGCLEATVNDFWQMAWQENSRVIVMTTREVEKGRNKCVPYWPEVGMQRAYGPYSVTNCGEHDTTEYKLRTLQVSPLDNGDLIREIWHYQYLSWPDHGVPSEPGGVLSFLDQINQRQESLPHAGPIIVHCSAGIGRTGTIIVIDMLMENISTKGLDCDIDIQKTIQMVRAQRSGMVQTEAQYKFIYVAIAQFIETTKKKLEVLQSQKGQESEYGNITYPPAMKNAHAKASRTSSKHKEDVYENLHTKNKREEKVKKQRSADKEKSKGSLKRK
# [4] = molecular target: Tyrosine-protein phosphatase non-receptor type 11 (Homo sapiens, UniProt Q06124, E76K); experiment: Inhibition of SHP2 (unknown origin) E76K mutant
# Tyrosine-protein phosphatase non-receptor type 11 (Homo sapiens, UniProt Q06124, E76K), sequence (Q06124 2-593 E76K limits assumed): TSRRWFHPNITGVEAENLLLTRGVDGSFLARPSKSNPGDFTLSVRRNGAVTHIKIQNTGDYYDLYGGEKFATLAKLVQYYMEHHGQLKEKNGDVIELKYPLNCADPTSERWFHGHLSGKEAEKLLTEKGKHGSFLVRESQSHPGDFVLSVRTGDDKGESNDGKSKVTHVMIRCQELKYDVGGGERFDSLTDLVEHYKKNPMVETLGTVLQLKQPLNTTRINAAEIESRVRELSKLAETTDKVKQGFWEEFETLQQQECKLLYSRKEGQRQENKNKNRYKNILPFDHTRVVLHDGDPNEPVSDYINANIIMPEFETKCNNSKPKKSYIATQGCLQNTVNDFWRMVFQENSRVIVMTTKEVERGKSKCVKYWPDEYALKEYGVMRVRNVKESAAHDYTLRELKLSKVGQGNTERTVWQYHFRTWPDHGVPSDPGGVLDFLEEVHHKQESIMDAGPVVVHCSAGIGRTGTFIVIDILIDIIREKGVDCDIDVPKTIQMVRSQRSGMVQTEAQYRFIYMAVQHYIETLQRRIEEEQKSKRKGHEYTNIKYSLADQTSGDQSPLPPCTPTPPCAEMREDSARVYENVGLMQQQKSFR
# [5] = molecular target: T3, Tyrosine-protein phosphatase non-receptor type 11 (Homo sapiens, UniProt Q06124)
# T3 sequence (Q06124 whole entry): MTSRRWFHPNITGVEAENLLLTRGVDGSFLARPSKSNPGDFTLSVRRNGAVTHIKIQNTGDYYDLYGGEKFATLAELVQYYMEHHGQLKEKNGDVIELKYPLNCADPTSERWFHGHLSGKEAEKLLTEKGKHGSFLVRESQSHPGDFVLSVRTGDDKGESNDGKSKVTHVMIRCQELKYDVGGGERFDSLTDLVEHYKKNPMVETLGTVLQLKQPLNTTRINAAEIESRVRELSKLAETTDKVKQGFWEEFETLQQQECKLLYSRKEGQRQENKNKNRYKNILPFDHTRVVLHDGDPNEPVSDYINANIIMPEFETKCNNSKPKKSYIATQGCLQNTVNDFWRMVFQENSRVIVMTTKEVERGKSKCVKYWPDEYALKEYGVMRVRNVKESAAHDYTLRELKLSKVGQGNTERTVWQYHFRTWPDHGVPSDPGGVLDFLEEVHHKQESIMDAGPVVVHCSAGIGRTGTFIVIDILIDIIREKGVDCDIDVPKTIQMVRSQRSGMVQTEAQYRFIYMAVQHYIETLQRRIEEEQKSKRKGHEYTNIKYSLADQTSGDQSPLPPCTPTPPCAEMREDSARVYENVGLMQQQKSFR
# Arginase-1 [6] = molecular target: T4, Arginase-1 (Homo sapiens, UniProt P05089); experiment: Inhibition of recombinant human ARG1 expressed in Escherichia coli using L-arginine hydrochloride as substrate incubated for 1 hr by colorimetric assay
# T4 sequence (P05089 whole entry): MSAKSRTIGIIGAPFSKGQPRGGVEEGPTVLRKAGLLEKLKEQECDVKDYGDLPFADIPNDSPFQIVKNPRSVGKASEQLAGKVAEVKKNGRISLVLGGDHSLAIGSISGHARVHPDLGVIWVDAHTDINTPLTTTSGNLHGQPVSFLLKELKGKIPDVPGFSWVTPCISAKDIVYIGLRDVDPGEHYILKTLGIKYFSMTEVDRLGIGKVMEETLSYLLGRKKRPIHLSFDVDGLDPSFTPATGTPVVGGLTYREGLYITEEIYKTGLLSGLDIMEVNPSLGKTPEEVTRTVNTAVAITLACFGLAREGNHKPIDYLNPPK
# [7] = molecular target: T3, Tyrosine-protein phosphatase non-receptor type 11; experiment: Inhibition of SHP (unknown origin)
# [8] = molecular target: T3, Tyrosine-protein phosphatase non-receptor type 11; experiment: Inhibition of SHP2 (unknown origin) at 100 mg/mL
# [9] = molecular target: T3, Tyrosine-protein phosphatase non-receptor type 11; remark: listed apart in the source
# Arginase-1 [10] = molecular target: T4, Arginase-1
# [11] = molecular target: T5, Arginase-2, mitochondrial (Homo sapiens, UniProt P78540)
# T5 sequence (P78540 whole entry): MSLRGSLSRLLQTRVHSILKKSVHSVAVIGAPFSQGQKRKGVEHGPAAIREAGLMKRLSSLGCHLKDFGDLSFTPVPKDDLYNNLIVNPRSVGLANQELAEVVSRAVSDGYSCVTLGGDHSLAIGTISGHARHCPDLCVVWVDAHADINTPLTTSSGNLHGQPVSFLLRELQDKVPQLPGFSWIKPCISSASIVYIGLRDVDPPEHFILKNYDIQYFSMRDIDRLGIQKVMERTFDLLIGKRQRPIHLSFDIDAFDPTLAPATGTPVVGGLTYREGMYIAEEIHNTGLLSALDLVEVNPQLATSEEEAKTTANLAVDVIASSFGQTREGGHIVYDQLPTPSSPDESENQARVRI
# [12] = molecular target: T6, Stimulator of interferon genes protein (Homo sapiens, UniProt Q86WV6); experiment: Binding affinity to human STING assessed as dissociation constant by surface plasmon resonance
# T6 sequence (Q86WV6 whole entry): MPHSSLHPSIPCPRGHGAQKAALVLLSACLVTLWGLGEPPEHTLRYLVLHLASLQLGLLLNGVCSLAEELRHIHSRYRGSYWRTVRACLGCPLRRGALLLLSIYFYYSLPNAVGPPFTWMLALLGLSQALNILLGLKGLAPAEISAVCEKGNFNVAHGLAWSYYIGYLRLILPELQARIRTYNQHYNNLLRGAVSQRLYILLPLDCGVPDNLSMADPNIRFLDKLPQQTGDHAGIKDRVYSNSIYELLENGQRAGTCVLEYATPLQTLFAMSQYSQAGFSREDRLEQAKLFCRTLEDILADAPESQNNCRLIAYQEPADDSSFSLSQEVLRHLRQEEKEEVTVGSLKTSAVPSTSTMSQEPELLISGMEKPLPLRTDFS
# [13] = molecular target: Tyrosine-protein kinase BTK (Homo sapiens, UniProt Q06187)
# Tyrosine-protein kinase BTK, sequence (Q06187 whole entry): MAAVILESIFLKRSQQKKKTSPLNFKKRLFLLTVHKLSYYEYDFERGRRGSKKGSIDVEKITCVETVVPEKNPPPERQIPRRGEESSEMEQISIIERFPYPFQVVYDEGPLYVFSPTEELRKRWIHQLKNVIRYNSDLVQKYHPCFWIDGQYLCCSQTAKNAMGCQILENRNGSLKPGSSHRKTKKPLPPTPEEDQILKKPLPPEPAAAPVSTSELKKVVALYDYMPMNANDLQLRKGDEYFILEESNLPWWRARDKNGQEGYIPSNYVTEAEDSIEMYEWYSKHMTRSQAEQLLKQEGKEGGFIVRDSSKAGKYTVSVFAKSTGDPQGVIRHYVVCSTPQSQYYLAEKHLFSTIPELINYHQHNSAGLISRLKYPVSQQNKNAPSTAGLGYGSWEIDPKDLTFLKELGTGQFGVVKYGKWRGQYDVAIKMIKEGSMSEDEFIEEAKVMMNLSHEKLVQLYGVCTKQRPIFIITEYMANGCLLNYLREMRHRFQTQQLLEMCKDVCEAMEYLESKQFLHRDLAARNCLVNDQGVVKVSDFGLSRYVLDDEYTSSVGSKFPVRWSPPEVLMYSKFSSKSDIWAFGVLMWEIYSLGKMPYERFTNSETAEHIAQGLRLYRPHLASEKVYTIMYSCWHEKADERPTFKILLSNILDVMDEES
# [14] = molecular target: T3, Tyrosine-protein phosphatase non-receptor type 11; remark: listed apart in the source
# [15] = molecular target: T5, Arginase-2, mitochondrial; experiment: Inhibition of recombinant human ARG2 expressed in Escherichia coli using L-arginine hydrochloride as substrate incubated for 1 hr by colorimetric assay
# [16] = molecular target: Programmed cell death 1 ligand 1 (Homo sapiens, UniProt Q9NZQ7)
# Programmed cell death 1 ligand 1, sequence (Q9NZQ7 whole entry): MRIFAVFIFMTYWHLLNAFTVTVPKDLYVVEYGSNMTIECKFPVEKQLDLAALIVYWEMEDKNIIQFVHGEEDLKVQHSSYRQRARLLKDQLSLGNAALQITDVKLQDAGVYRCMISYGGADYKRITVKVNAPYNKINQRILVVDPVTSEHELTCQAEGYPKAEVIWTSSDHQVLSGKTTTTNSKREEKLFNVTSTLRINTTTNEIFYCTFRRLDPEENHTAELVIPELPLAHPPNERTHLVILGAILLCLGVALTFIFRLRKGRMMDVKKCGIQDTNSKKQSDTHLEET
# L929 = experiment: cells; details: Mus musculus
# [17] = molecular target: T7, Phosphatidylinositol 3,4,5-trisphosphate 5-phosphatase 1 (Homo sapiens, UniProt Q92835); experiment: Inhibition of SHIP1 (unknown origin)
# T7 sequence (Q92835 whole entry): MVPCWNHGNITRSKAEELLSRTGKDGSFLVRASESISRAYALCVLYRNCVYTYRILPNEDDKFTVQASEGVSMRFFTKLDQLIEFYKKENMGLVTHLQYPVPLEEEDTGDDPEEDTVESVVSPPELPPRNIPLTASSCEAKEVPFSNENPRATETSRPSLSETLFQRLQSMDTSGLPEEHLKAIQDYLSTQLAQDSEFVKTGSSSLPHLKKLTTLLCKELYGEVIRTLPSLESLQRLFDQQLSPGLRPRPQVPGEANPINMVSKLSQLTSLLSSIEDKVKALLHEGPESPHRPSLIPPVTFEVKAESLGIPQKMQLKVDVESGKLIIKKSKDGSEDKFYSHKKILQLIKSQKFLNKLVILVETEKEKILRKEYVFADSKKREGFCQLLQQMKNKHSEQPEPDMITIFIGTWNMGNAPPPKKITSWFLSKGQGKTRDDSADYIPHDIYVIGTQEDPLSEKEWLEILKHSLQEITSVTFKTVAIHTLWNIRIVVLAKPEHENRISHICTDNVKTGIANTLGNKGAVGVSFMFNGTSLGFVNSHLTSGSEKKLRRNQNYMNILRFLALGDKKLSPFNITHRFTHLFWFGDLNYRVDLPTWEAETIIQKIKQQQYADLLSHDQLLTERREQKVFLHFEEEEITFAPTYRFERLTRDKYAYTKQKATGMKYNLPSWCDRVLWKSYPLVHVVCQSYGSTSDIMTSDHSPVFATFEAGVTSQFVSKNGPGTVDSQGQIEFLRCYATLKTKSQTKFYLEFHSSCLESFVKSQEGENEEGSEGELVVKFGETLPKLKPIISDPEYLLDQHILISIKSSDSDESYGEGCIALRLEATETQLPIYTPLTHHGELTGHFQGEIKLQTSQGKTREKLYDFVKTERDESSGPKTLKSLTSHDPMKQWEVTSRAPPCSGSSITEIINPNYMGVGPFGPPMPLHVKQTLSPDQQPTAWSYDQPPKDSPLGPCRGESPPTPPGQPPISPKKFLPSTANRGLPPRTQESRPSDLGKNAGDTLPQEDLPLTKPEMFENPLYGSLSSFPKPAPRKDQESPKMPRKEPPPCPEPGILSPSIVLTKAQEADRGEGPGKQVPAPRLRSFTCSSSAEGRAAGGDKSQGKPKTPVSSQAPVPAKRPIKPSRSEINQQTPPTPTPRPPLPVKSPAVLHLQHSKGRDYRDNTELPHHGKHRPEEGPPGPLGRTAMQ
# [18] = Agonist activity at TNFalpha (unknown origin); parameters: species or system Homo sapiens
# [19] = Agonist activity at IFNalpha (unknown origin); parameters: species or system Homo sapiens
# [20] = molecular target: Tyrosine-protein phosphatase non-receptor type 11 (Homo sapiens, UniProt Q06124, Q257L/T253M); experiment: Inhibition of SHP2 T253M/Q257L mutant (unknown origin)
# Tyrosine-protein phosphatase non-receptor type 11 (Homo sapiens, UniProt Q06124, Q257L/T253M), sequence (Q06124 2-593 T253M/Q257L limits assumed): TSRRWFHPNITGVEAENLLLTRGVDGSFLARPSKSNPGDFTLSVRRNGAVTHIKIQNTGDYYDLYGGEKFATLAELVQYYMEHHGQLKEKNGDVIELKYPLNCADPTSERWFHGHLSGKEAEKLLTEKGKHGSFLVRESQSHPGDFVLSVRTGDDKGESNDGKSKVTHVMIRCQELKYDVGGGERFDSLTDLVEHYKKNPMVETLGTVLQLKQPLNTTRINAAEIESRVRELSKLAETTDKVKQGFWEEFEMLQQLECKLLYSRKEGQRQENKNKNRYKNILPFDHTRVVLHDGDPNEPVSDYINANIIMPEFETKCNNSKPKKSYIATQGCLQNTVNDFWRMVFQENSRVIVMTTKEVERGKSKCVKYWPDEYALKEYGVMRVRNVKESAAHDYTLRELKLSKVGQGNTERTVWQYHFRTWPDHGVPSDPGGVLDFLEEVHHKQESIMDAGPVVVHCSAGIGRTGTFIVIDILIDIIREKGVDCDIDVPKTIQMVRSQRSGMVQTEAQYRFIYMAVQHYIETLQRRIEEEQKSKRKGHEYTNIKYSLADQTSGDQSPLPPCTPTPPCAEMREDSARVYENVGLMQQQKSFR
# [21] = molecular target: Tyrosine-protein phosphatase non-receptor type 11 (Homo sapiens, UniProt Q06124); experiment: Inhibition of SHP2 1-525 mutant (unknown origin)
# [22] = Binding affinity to A2aR (unknown origin); parameters: species or system Homo sapiens
# [23] = molecular target: T6, Stimulator of interferon genes protein; experiment: Agonist activity at STING in human THP1-Dual cells assessed as increase in IFN-beta secretion incubated for 24 hrs; assay type: cell-based, THP-1
structure (smiles),measurement,setting,value
OC[C@H]1O[C@H](Oc2cc(/C=C/c3cc(O)cc(O)c3)ccc2O)[C@H](O)[C@@H](O)[C@@H]1O,IC50,Arginase-1 [1],11200 nM
O=S(=O)(O)c1ccc2cc(/N=N/c3cc(S(=O)(=O)O)c4cccnc4c3O)ccc2c1,IC50,[2],14300 nM
same,IC50,[3],335 nM
CCOc1cc(O)c(C(=O)/C=C/c2ccc(Cl)cc2Cl)cc1CN1CCC=C(C2C(=O)Nc3ccccc32)C1 (stereo not given),IC50,[4],7670 nM
same,IC50,[5],9.8 nM
N[C@](CCCCB(O)O)(CCN1CCCCC1)C(=O)O,IC50,Arginase-1 [6],509 nM
Cc1nc(N2CCC(C)(N)CC2)c(CO)nc1-c1cccc(Cl)c1Cl,IC50,[7],71 nM
COC(=O)c1cccc(N/N=C2\C(=O)Nc3ccc(S(=O)(=O)NCc4ccc(F)cc4)cc32)c1,IC50,[8],> 100000 nM
Cn1cc(-c2cn(CC(=O)Nc3nc4ccccc4s3)nn2)c2cc(C(=O)O)c(O)cc21,IC50,[2],2100 nM
same,IC50,[9],5500 nM
same,IC50,[3],15700 nM
N=C(NO)NCCC[C@H](N)C(=O)O,IC50,Arginase-1 [10],3600 nM
same,IC50,[11],1600 nM
same,IC50,Arginase-1 [6],150 nM
O=C1Nc2ccc(S(=O)(=O)NCc3ccc(F)cc3)cc2/C1=N/Nc1cccc(C(=O)O)c1,IC50,[2],1690 nM
COc1c(O)cc2oc3cc(O)c(CC=C(C)C)c(O)c3c(=O)c2c1CC=C(C)C [MANGOSTIN],Kd,[12],137000 nM
Cc1c(-c2c(F)cc(C(N)=O)c3[nH]c4c(c23)CC[C@H](C(C)(C)O)C4)cccc1N1C(=O)c2cccc(F)c2C(C)C1=O (stereo not given in full),IC50,[13],0.5 nM
N=C(NO)NCC[C@H](N)C(=O)O [NOR-NOHA],IC50,[11],51 nM
O=C1Nc2cc(S(=O)(=O)O)ccc2C1/N=N/c1ccccc1[N+](=O)[O-] (stereo not given),IC50,[14],47000 nM
same,IC50,[9],47000 nM
C[C@@H]1OCC2(CCN(c3nc(N)c(Sc4cccnc4C(F)(F)F)c(=O)n3O)CC2)[C@@H]1N,IC50,[5],23 nM
same,IC50,[7],23 nM
N[C@@](CCCCB(O)O)(C(=O)O)C1CCN(Cc2ccc(Cl)c(Cl)c2)CC1,IC50,Arginase-1 [6],200 nM
same,IC50,[15],290 nM
N#Cc1cncc(COc2cc(OC3CCc4c(-c5ccccc5)cccc43)c(Cl)cc2CN[C@@H](CO)C(=O)O)c1 (stereo not given in full),IC50,[16],< 100 nM
N[C@@H](CCCCB(O)O)C(=O)O,IC50,Arginase-1 [10],5 nM
same,IC50,[11],8.5 nM
O=C1/C(=N\Nc2ccc(S(=O)(=O)O)cc2)C(c2ccc([N+](=O)[O-])cc2)NN1c1ccccc1 (stereo not given),IC50,[2],14500 nM
same,IC50,[9],30000 nM
same,IC50,[3],30000 nM
NC1=NC2C(N=CN2[C@@H]2O[C@@H]3COP(=O)(O)O[C@H]4[C@@H](O)[C@H](N5C=NC6C(=O)NC(N)=NC65)O[C@@H]4COP(=O)(O)O[C@H]3[C@H]2O)C(=O)N1 (stereo not given in full),EC50,L929,> 500 nM
CC(C)CCC[C@@H](C)[C@H]1CC[C@H]2[C@]3(C)CC[C@H]4C[C@H](N)CC[C@]4(C)[C@H]3CC[C@@]21C,IC50,[17],2500 nM
NC(CCCCB(O)O)(C(=O)O)C1CCN(Cc2ccc(Cl)cc2Cl)CC1 (stereo not given),IC50,Arginase-1 [6],86 nM
same,IC50,[15],296 nM
CCC[C@H](C)Oc1nc(N)c2[nH]c(=O)n(CCCCCN3CCCCC3)c2n1 [GSK-2245035],pEC50,[18],6.5
same,pEC50,[19],9.3
COc1cccc(-c2nnc3n(Cc4ccccc4Cl)c(=O)c4ccccc4n23)c1O,IC50,[20],60000 nM
same,IC50,[21],60000 nM
Nc1nc(-n2cccn2)nc(-n2cccn2)c1Br [PBF-509],Ki,[22],8.2 nM
CCOC(=O)c1ccc(N2NC(c3ccc([N+](=O)[O-])cc3)/C(=N/Nc3ccc(S(=O)(=O)O)cc3)C2=O)cc1 (stereo not given),IC50,[2],19000 nM
same,IC50,[9],630 nM
same,IC50,[3],1800 nM
N[C@@H](CSCCB(O)O)C(=O)O,IC50,Arginase-1 [10],270 nM
same,IC50,[11],30 nM
CCn1nc(C)cc1C(=O)/C=C1\Nc2cc(C(N)=O)cc(CCCN3CCOCC3)c2N1C/C=C/CN1/C(=C/C(=O)c2cc(C)nn2CC)Nc2cc(C(N)=O)cc(OC)c21,EC50,[23],130 nM
